Source: patent publication US6673839B1, “Pharmaceutical compositions with antitumour activity” (Universita' Degli Studi di Catania, priority 1998, dated 2004)
Where a name gives a salt, the structure may show the parent alone.

Legend:
[1] = test system: Cells from Larynx Carcinoma Explant; assay: In vitro short-term chemosensitivity assay (MTT); type: cell-based, human
Protocol: The effects of L-aC on cells from 4 primitive epidermoid carcinomas of the larynx and 1 primitive undifferentiated carcinoma of the nasopharynx were tested.
Tissue fragments from the tumour mass were mechanically dissociated in Hank's solutions adding an antibiotic and an antifungal to obtain a cell monosuspension free of agglomerates. The resulting suspension was centrifuged at 1200 rpm for 5 minutes and the pellet was resuspended in MEM culture medium supplemented with 10% of patient serum, to obtain a concentration of 10^5 cells/ml. Subsequently, 180 μl of the resulting suspension were dispensed in microplate wells and incubated under 5% CO2 atmosphere at 37° C. for 3 days. After that, the antitumor medicaments were added in the amount of 20 μl for each well, at a concentration of 0.1×, 1× and 10× the maximum serum concentrations that can usually be reached in clinical practice. 24 h after the beginning of the exposure to the antitumour medicament, 100 μl of MTT were added, and after 4 h, a further 150 μl of dimethylsulfoxide were added.
The optical density was evaluated by a Uniscan microspectrophotometer with a […] wavelength filter. Cytotoxicity was evaluated as percentage of the optical density of the treated sample compared with the optical density of the control.
Bleomycin (BLEC), […] (CDDP), 5-fluoruracil (5-FU), vincristine (VCR), epidoxorubicin (Epi-Dx) and methotrexate (MTX) were tested for comparison purposes.
L-aC was tested at the following concentrations: 0.2-2-20 mg/ml.
In vitro short-term chemosensitivity assay (according to Hill and coll.)
(Cell Vitality Percentage After Exposure to the Antitumoral)—Raw Data
(Cells from Larynx Carcinoma Explant)

[2] = test system: HL60, Du 145, HT 29 and MCF 7 cell lines; assay: Sensitivity and apoptosis in all assayed stabilized human neoplastic cell lines; type: cell-based
Protocol: The effects of L-aC on stabilized human neoplastic cell lines were tested using the methylene blue assay.
Acute promyelocytic leukemia cell line (HL60) and prostate (Du 145), colon (HT 29) and breast (MCF 7) adenocarcinoma cell lines have been used.
Cell suspensions at concentrations of 10^5 cells/ml were prepared.
100 μl of the obtained cell suspension were inoculated on 96 well plates and incubated at 37° for 12 hours, to obtain cell adhesion to the plates. After 12 hours, L-aC was added at the concentrations of 0.2 mg/ml, 2 mg/ml, 20 mg/ml. After 72 hours, the culture medium was removed and 100 μl of 100% ethanol were added for 30 min. Subsequently ethanol was removed and 1% methylene-blue was added for 2 hours. The dye was then removed and the plates were dried before adding 1M HCl.
The induction of apoptosis has been detected due to nuclear cromatin condensation, cytoplasmic shrinking, endoplasmic reticulum dilatation and membrane blebbing together with DNA fragmentation.

[3] = test system: tumour cells from lymph nodes; assay: Effects of L-aC on cell cycle of cultured secondary human tumour cells; type: cell-based; conditions: 20 mg/ml
Protocol: L-aC was tested on tumour cells from lymph nodes taken from the same patients from which the primitive neoplasms had been taken.

[4] = test system: multirecurrent urinary bladder neoplasia; assay: Patients with urinary bladder multirecurrent neoplasia treated orally; type: in vivo, human
Text: 10 patients, 8 males and 2 females, of age from 55 to 75 years, all affected with multirecurrent urinary bladder neoplasia, at stages ranging from pT1G1NxMx and pT2G3NxMx, were orally treated with L-aC, at a standard dosage of 2 g/day, for a time from 10 to 12 months. They were then subjected to follow-up ranging from 6 to 22 months.
Before treatment with L-aC, patients had undergone an individual number of endoscopic resections (Turb), varying from 6 to 19 and in 1 case partial cystectomy with ureterocystoneostomy had been performed.
In all patients, treatment with L-aC started immediately after endoscopic resection.
Patients were subjected to quarterly endoscopic verification for the first year from the beginning of the treatment.
After 4 negative quarterly controls, the endoscopic control was performed every six months for a duration of 2 years.

Yoshida tumour = assay: Survived rats reinoculated with Yoshida tumour; type: in vivo, Sprague-Dowley rats
Protocol: 20 survivors rats previously transplanted with Yoshida tumour and subjected to the treatment on alternate days with 25 mg of L-aC diluted in 5 ml of saline solution […], were reinoculated with the tumour, at the end of the 6 week observation period.

CC(=O)OC(CC(=O)[O-])C[N+](C)(C)C [L-aC, L-acetylcarnitine hydrochloride]
Cell Vitality Percentage After Exposure ([1]; Table 2 explant, 0.1x): 62%
Cell Vitality Percentage After Exposure ([1]; Table 2 explant, 1x): 32%
Cell Vitality Percentage After Exposure ([1]; Table 2 explant, 10x): 15%
Cell Vitality Percentage After Exposure ([1]; Table 3 explant, 0.1x): 42%
Cell Vitality Percentage After Exposure ([1]; Table 3 explant, 1x): 24%
Cell Vitality Percentage After Exposure ([1]; Table 3 explant, 10x): 7.2%
Cell Vitality Percentage After Exposure ([1]; Table 4 explant, 0.1x): 3.8%
Cell Vitality Percentage After Exposure ([1]; Table 4 explant, 1x): 1.5%
Cell Vitality Percentage After Exposure ([1]; Table 4 explant, 10x): 1.4%
Cell Vitality Percentage After Exposure ([1]; Table 5 explant, 0.1x): 63%
Cell Vitality Percentage After Exposure ([1]; Table 5 explant, 1x): 37%
Cell Vitality Percentage After Exposure ([1]; Table 5 explant, 10x): 32%
programmed cell death phenomena ([2]; 0.2 mg/ml, all assayed cell lines): Phenomena suggestive of programmed cell death were already observed
programmed cell death phenomena ([2]; 2 mg/ml): more marked and evident
change of effect over concentration range ([2]; 2 to 20 mg/ml): No significant changes
sensitivity of the tested cell lines ([2]; all tested cell lines): sensitive
activity versus that on cells from the primitive tumours ([3]; all samples): comparable
G1/S+G2M ratio after treatment ([3]; tumour with pre-treatment ratio 20/80): 74/26
disease status at follow-up ([4]; 2 patients completed follow-up, 6 still under study): free from the disease
endoscopic control for tumour ([4]; 10 patients, oral 2 g/day 10 to 12 months after endoscopic resection, first and subsequent quarterly controls): all patients were negative for the tumour
hematochemical parameters and side effects during treatment ([4]; oral 2 g/day, 10 to 12 months): Neither significant changes in the hematochemical parameters nor side effects of any kind were observed
ascites after reinoculation (Yoshida tumour; 20 survivors (25 mg L-aC alternate days, 4 weeks), until day 14 after reinoculation): no animals showed ascites
outcome of repeated reinoculation (Yoshida tumour; second reinoculation): unsuccessfully
